Patent US6846845B2, “Heat shock protein inducer” (Eisai Co., Ltd., priority 2002, dated 2005)

Experiments:
Format in all cases: in vivo, rat
PKC (α, β, γ and ε) = assay: Translocation of PKC isoforms α, β, γ and ε in particulate and cytosolic heart fractions (Western immunoblotting); details: 24 h after GGA 200 mg/kg oral or vehicle; chelerythrine 5 mg/kg i.v. pretreatment, FIG. 10
HSP70 = assay: Effect of chelerythrine pretreatment on GGA-induced HSP70 expression in the heart (Western immunoblotting), Example 2; details: 24 h after GGA 200 mg/kg oral or vehicle; chelerythrine 5 mg/kg i.v. pretreatment, FIG. 8
Method: (§1) Male Sprague-Dawley rats (220-250 g) were used. GGA, as an emulsion with 5% gum arabic and 0.008% tocopherol, was given orally at a dose of 200 mg/kg. Rats were classified into 4 groups. FIG. 7 is a diagrammatic representation of experimental protocol. […] Twenty-four hours after oral administration of GGA or vehicle, rats were anesthetized (sodium pentobarbital, 50 mg/kg IP) and heparinized (500 IU/kg IP). Hearts were excised, immediately frozen in liquid nitrogen, and stored at −70° C. until use for Western blot analysis (n=4 for each group). […]
(§2) To analyze the expression of HSP70, the frozen heart samples were homogenized with SDS sample buffer (pH 6.8, 20% glycerol, 6% SDS, 0.12M Tris), centrifuged and boiled (Maloyan A, Palmon A, Horowitz M. Heat acclimation increases the basal HSP70 level and alters its production dynamics during heat stress. Am J Physiol. 1999; 276:R1506-R1515.). […] The total protein concentration of heart was quantified by the Bradford method (Bradford MM. A rapid and sensitive method for quantitation of microgram quantities of protein utilizing the principle of protein-dye binding. Anal. Biochem. 1976;72:248-254). […] The proteins were detected by ECL with exposure to Hyperfilm (Amersham Pharmacia). The amount of protein on the immunoblots was quantified using National Institutes of Health image software. […]

[1] = test system: heat shock factor 1 (HSF1); assay: HSF1 phosphorylation and translocation in cytosolic and nuclear heart fractions (Western immunoblotting); details: 24 h after GGA 200 mg/kg oral or vehicle; chelerythrine 5 mg/kg i.v. pretreatment, FIG. 9
Method: as §1, §2

PKCδ = assay: Translocation of PKCδ in particulate and cytosolic heart fractions (Western immunoblotting); details: 24 h after GGA 200 mg/kg oral or vehicle; chelerythrine 5 mg/kg i.v. pretreatment, FIG. 10
isolated perfused heart = assay: Isolated perfused heart experiments (Langendorff, 20 min no-flow global ischemia, 30 min reperfusion), Example 2
Method: Male Sprague-Dawley rats (220-250 g) were used. GGA, as an emulsion with 5% gum arabic and 0.008% tocopherol, was given orally at a dose of 200 mg/kg. Rats were classified into 4 groups. FIG. 7 is a diagrammatic representation of experimental protocol. […] Twenty-four hours after oral administration of GGA or vehicle, rats were anesthetized (sodium pentobarbital, 50 mg/kg IP) and heparinized (500 IU/kg IP). Hearts were excised, immediately frozen in liquid nitrogen, and stored at −70° C. until use for Western blot analysis (n=4 for each group). To examine the cardiac function during ischemia and reperfusion, hearts of each group were prepared for isolated perfused experiments using Langendorff apparatus (n=7-9 for each group, FIG. 7).
Twenty-four hours after administration-of 200 mg/kg of GGA or vehicle, rats of 4 groups were heparinized (500 IU/kg, IP) and anesthetized with sodium pentobarbital (50 mg/kg, IP). Each heart was isolated and perfused retrogradely using the Langendorff method with Krebs-Henseleit buffer (pH 7.4, [in mM] 118 NaCl, 4.7 KCl, 2.5 CaCl2, 1.2 MgSO4, 1.2 KH2PO4, 25.0 Na2HCO3, 11.0 glucose) equilibrated with 95% O2-5% CO2 gas mixture at 36.5° C. at a constant pressure of 75 mm Hg. A water-filled latex balloon was inserted through the mitral orifice into the left ventricle (LV) and the LV end-diastolic pressure (LVEDP) was adjusted to 0-5 mm Hg. During the initial 10 min of constant pressure perfusion, the perfusion flow rate was determined for each heart, which was then perfused at a determined perfusion rate using a microtube pump while the heart was covered with water-jacketed glassware and the relative humidity maintained at 90% or more. Normothermic no-flow global ischemia was initiated for 20 min, followed by reperfusion for 30 min. The coronary effluent during the 30 min of reperfusion period was collected for measurement of creatine kinase content (released CK).
LV pressure was monitored using a pressure transducer to obtain the peak positive and negative first derivatives of LV pressure (dP/dtmax and dP/dtmin). […] Coronary perfusion pressure (CPP) was defined as the hydraulic pressure measured at the level of aortic cannulation. LV pressure, CPP and electrocardiogram were continuously recorded on a polygraph recorder (WS-681G, Nihon Kohden) and stored on a PCM data recorder (RD-111T, TEAC) for later analysis.
Data are expressed as mean ±SEM. Serial changes in LVDP, LVEDP, CPP, and dP/dt were analyzed by two-way analysis of variance (ANOVA) followed by the Bonferroni/Dunn test, unless otherwise specified. Comparisons among groups with respect to the hemodynamic parameters at baseline and the ratio of released CK to ventricular weight were analyzed by one-way ANOVA followed by the Bonferroni/Dunn test. […]

Structure (SMILES): COc1ccc2c(c[n+](C)c3c4cc5c(cc4ccc23)OCO5)c1OC [chelerythrine, reference compound]
- PKC isoforms α, β, γ and ε in cytosolic and particulate fractions (PKC (α, β, γ and ε)): not influenced
- HSP70 expression in the heart (relative density to control group) (HSP70): did not influence
- amount of phosphorylated form of HSF1 in the nuclear fraction [1]: did not significantly influence
- PKCδ in the particulate fraction / particulate/cytosol ratio versus CNT group (PKCδ): did not influence
- released creatine kinase (CK) relative to ventricular weight (isolated perfused heart; 30-min reperfusion period after 20 min ischemia, FIG. 12): similar
- recovery of LVDP, LVEDP and dP/dt on reperfusion versus CNT group (isolated perfused heart; 20 min no-flow global ischemia, 30 min reperfusion, FIG. 11): similar
